Measured values reported in patent US5541343A, “Cyclic imino derivatives and pharmaceutical compositions containing them” (Karl Thomae GmbH, priority 1990, dated 1996).
Counter-ions that a name gives are not always drawn.

Assays:
human thrombocytes = test: Fibrinogen binding to human thrombocytes; conditions: gel-filtered platelets, 125-J-fibrinogen, 20 minutes at ambient temperature; read-out: Fibrinogen binding test IC50
Description: 1. Fibrinogen binding to human thrombocytes
Blood obtained by puncture of an antecubital vein is anticoagulated with trisodium citrate (final concentration: 13 mM) and centrifuged for 10 minutes at 170 g. The supernatant platelet-rich plasma is placed on a Sepharose 2B column (Pharmacia) and eluted with a solution of 90 mM common salt, 14 mM trisodium citrate, 5 mM glucose and 50 mM tris(hydroxymethyl)aminomethane, adjusted to pH 7.4. The gel-filtered platelets (GFP) appearing in front of the plasma proteins are used for the binding tests.
50 μl of a 60 mM calcium chloride solution, 50 μl of a 0.6 mM adenosine diphosphate solution, 100 μl of substance solution or solvent and 50 μl of fibrinogen solution (containing 3 μg 125-J-fibrinogen) are added to 750 μl of GFP and incubated for 20 minutes at ambient temperature. The non-specific binding is measured in the presence of 3 mg/ml of cold fibrinogen.
900 μl of the incubate are carefully pipetted onto 250 μl of silicon oil (AP 38: AR 20, 1:2 v/v, Wacker Chemie) in Eppendorf vessels and centrifuged for 2 minutes at 10,000 g. The aqueous supernatant and some of the oil are removed, the tip of the vessel with the platelet pellet is cut off and the quantity of bound fibrinogen is measured in a gamma-counter. The concentration of substance which inhibits fibrinogen binding by 50% is calculated from a concentration series and given as the IC50.

platelet aggregation = test: Antithrombotic effect: collagen-induced platelet aggregation (Born and Cross method) in platelet-rich plasma; assay type: cell-based; conditions: Homo sapiens, 10 minutes preincubation at 37° C., 50% change in optical density, read-out: Inhibition of platelet aggregation EC50
Description: The thrombocyte aggregation is measured by the Born and Cross method (J. Physiol. 170: 397 (1964)) in platelet-rich plasma from healthy test subjects. To inhibit coagulation, 3.14% sodium citrate is added to the blood in a ratio by volume of 1:10.
Collagen-induced aggregation
The curve of the decrease in optical density of the platelet suspension is measured and recorded photometrically after the addition of the aggregation-inducing substance. The speed of aggregation is determined from the angle of inclination of the density curve. The point on the curve where maximum transmittance occurs is used to calculate the optical density.
The quantity of collagen is made as small as possible but sufficient to produce an irreversible reaction curve. Standard commercial collagen made by Hormonchemie of Munich is used. Before the addition of collagen, the plasma is incubated for 10 minutes with the substance at 37° C.
From the measurements obtained, an EC50 is determined graphically relating to a 50% change in the optical density in the sense of an inhibition of aggregation.

[1] = test system: collagen-induced thrombocyte aggregation; test: Collagen-induced thrombocyte aggregation ex vivo in rhesus monkeys following oral administration; conditions: 1 mg/kg
Description: Moreover, the compound of Example 70(1), for example, inhibits collagen-induced thrombocyte aggregation ex vivo in rhesus monkeys following oral administration of 1 mg/kg for more than 8 hours.

[2] = Approximate LD50 in rats (tolerability); conditions: rat, in vivo, after intravenous route
Description: The new compounds are well tolerated since the approximate LD50 in rats is, for example, for the compound of Example (3) above 100 mg/kg after intravenous route and for the compound of Example 70(1) above 2.000 mg/kg after oral administration.

| Compound | IC50 (human thrombocytes) [µM] | EC50 (platelet aggregation) [µM] | inhibits collagen-induced thrombocyte aggregation ex vivo (duration of inhibition) [1] | LD50 [2] [mg/kg] |
| --- | --- | --- | --- | --- |
| N=C(N)c1ccc(-c2ccc(OC[C@H]3CNC(=O)[C@@H]3CC(=O)O)cc2)cc1 (relative stereo) [7(89), (3R,S;4R,S)-4-[(4'-amidino-4-biphenylyl)oxymethyl]-3-carboxymethyl-2-pyrrolidinone] | 0.23 | 2.8 |  |  |
| N=C(N)NCCCCCOc1ccc([C@@H]2C[C@@H](CC(=O)O)C(=O)N2CCCc2ccccc2)cc1 (relative stereo) [31(1), (3S,R;5S,R)-3-carboxymethyl-5-[4-[(5-guanidinopentyl)oxy]phenyl]-1-(3-phenylpropyl)-2-pyrrolidinone] | 4.7 | 66 |  |  |
| COC(=O)C[C@@H]1C[C@@H](COc2ccc(-c3ccc(C(=N)N)cc3)cc2)NC1=O [6(2), (3S,5S)-5-[(4'-amidino-4-biphenylyl)oxymethyl]-3-[(methoxycarbonyl)methyl]-2-pyrrolidinone×1.25 HCl] | 2.3 | 1.9 |  |  |
| N=C(N)c1ccc(-c2ccc(N3CC(CP(=O)(O)O)CC3=O)cc2)cc1 (centres unmarked) [6(184), 1-(4'-amidino-4-biphenylyl)-4-phosphonomethyl-2-pyrrolidinone] | 0.42 | 1 |  |  |
| N=C(N)c1ccc(-c2ccc(OC[C@@H]3C[C@@H](CC(=O)O)C(=O)N3c3ccccc3)cc2)cc1 [7(1), (3S,5S)-5-[(4'-amidino-4-biphenylyl)oxymethyl]-3-carboxymethyl-1-phenyl-2-pyrrolidinone-dihydrate] | 0.024 | 0.17 |  |  |
| N=C(N)c1ccc(-c2ccc(OC[C@@H]3C[C@@H](CC(=O)O)C(=O)N3)cc2)cc1 [7(3), (3S,5S)-5-[(4'-amidino-4-biphenylyl)oxymethyl]-3-carboxymethyl-2-pyrrolidinone] | 0.031 | 0.06 |  |  |
| Cc1c(OC[C@@H]2C[C@@H](CC(=O)O)C(=O)N2CCCc2ccccc2)ccc(-c2ccc(C(=N)N)cc2)c1C [7(10), (3S,5S)-5-[(4'-amidino-2,3-dimethyl-4-biphenylyl)oxymethyl]-3-carboxymethyl-1-(3-phenylpropyl)-2-pyrrolidinone-hydrate] | 0.05 | 2.6 |  |  |
| N=C(N)c1ccc2c(c1)C(=O)c1cc(OC[C@@H]3C[C@@H](CC(=O)O)C(=O)N3CCCc3ccccc3)ccc1-2 [7(36), (3S,5S)-5-[(7-amidino-9-keto-2-fluorenyl)oxymethyl]-3-carboxymethyl-1-(3-phenylpropyl)-2-pyrrolidinone] | 0.041 | 0.41 |  |  |
| CC(=O)N(C[C@@H]1C[C@@H](CC(=O)O)C(=O)N1CCCc1ccccc1)c1ccc(-c2ccc(C(=N)N)cc2)cc1 [7(40), (3S,5S)-5-[[N-(4'-amidino-4-biphenylyl)-N-acetyl]aminomethyl]-3-carboxymethyl-1-(3-phenylpropyl)-2-pyrrolidinonehydrate] | 0.17 | 2 |  |  |
| N=C(N)c1ccc(Nc2ccccc2C(=O)NC[C@@H]2C[C@@H](CC(=O)O)C(=O)N2CCCc2ccccc2)cc1 [7(41), (3S,5S)-5-[[2-[(4-amidinophenyl)amino]phenyl]carbonylaminomethyl]-3-carboxymethyl-1-(3-phenylpropyl)-2-pyrrolidinone] | 2.8 | 19 |  |  |
| N=C(N)c1cccc(C(=O)c2ccc(OC[C@@H]3C[C@@H](CC(=O)O)C(=O)N3CCCc3ccccc3)cc2)c1 [7(46), (3S,5S)-5-[[4-[(3-amidinophenyl)carbonyl]phenyl]oxymethyl]-3-carboxymethyl-1-(3-phenylpropyl)-2-pyrrolidinone] | 0.69 | 12 |  |  |
| CN(C)C(=O)CN1C(=O)[C@H](CC(=O)O)C[C@H]1COc1ccc(-c2ccc(C(=N)N)cc2)cc1 [7(51), (3S,5S)-5-[(4'-amidino-4-biphenylyl)oxymethyl]-3-carboxymethyl-1-[(dimethylaminocarbonyl)methyl]-2-pyrrolidinone hydrochloride-semihydrate] | 0.027 | 0.08 |  |  |
| CC(=O)N1C[C@H](CC(=O)O)C[C@H]1COc1ccc(-c2ccc(C(=N)N)cc2)cc1 [7(56), (3S,5S)-1-acetyl-5-[(4'-amidino-4-biphenylyl)oxymethyl]-3-carboxymethyl-pyrrolidine-semihydrate] | 0.02 | 0.06 |  |  |
| CN(C)S(=O)(=O)N1C[C@H](CC(=O)O)C[C@H]1COc1ccc(-c2ccc(C(=N)N)cc2)cc1 [7(58), (3S,5S)-5-[(4'-amidino-4-biphenylyl)oxymethyl]-3-carboxymethyl-1-(dimethylaminosulphonyl)-pyrrolidine×0.25 water] | 0.02 | 0.21 |  |  |
| N=C(N)c1ccc(-c2ccc(S(=O)(=O)NC[C@@H]3C[C@@H](CC(=O)O)C(=O)N3CCCc3ccccc3)cc2)cc1 [7(70)] | 0.4 | 19 |  |  |
| N=C(N)c1ccc(-c2ccc(OC[C@@H]3C[C@@H](CC(=O)O)C(=O)N3)cc2)cc1F [7(93), (3S,5S)-5-[(4'-amidino-3'-fluoro-4-biphenylyl)oxymethyl]-3-carboxymethyl-2-pyrrolidinone] | 0.026 | 0.1 |  |  |
| NCCCCc1ccc(OC[C@@H]2C[C@@H](CC(=O)O)C(=O)N2CCCc2ccccc2)cc1 [23(8), (3S,5S)-5-[[4-(4-aminobutyl)phenyl]oxymethyl]-3-carboxymethyl-1-(3-phenylpropyl)-2-pyrrolidinonesemihydrate ×1.25 HCl] | 4.6 | 20 |  |  |
| NCCCC(=O)Nc1ccc(OC[C@@H]2C[C@@H](CC(=O)O)C(=O)N2CCCc2ccccc2)cc1 [32(1), (3S,5S)-5-[[4-[(3-aminopropyl)carbonylamino]phenyl]oxymethyl]-3-carboxymethyl-1-(3-phenylpropyl)-2-pyrrolidinone] | 2.2 | 33 |  |  |
| N=C(N)c1ccc(-c2ccc(OC[C@@H]3C[C@@H](CC(=O)O)C(=O)N3CCCc3ccccc3)cc2)cc1 [Example 7, (3S,5S)-5-[(4'-Amidino-4-biphenylyl)oxymethyl)-3-carboxymethyl-1-(3-phenylpropyl)-2-pyrrolidinone-hydrate] | 0.032 | 0.9 |  |  |
| NC1CCc2cc(C(=O)NCC[C@@H]3C[C@@H](CC(=O)O)C(=O)N3CCCc3ccccc3)ccc2C1 (stereo partly drawn) [Example 32, (3S,5S)-5-[2-[(6-Amino-5,6,7,8-tetrahydro-2-naphthylcarbonyl)amino]ethyl]-3-carboxymethyl-1-(3-phenylpropyl)-2-pyrrolidinone-semihydrate] | 1.2 | 5.8 |  |  |
| COC(=O)C[C@@H]1C[C@@H](COc2ccc(-c3ccc(C(=N)NC(=O)OC)cc3)cc2)NC1=O [Example 70(1), (3S,5S)-5-[[4'-(N-methoxycarbonylamidino)-4biphenylyl]oxymethyl]-3-[(methoxycarbonyl)methyl]-2-pyrrolidinone] |  |  | more than 8 hours |  |
| N=C(NO)c1ccc(-c2ccc(OC[C@@H]3C[C@@H](CC(=O)O)C(=O)N3)cc2)cc1 [Example 71, (3S,5S)-3-Carboxymethyl-5-[[4'-(N-hydroxyamidino)-4biphenylyl)oxymethyl]-2-pyrrolidinone] | 4.6 | 11 |  |  |
| N=C(N)c1ccc(-c2ccc(OC[C@@H]3C[C@@H](CC(=O)O)C(=O)N3)cc2)cc1 [Example (3), (3S,5S)-5-[(4'-amidino-4-biphenylyl)oxymethyl]-3-carboxymethyl-2-pyrrolidinone] |  |  |  | > 100 |
